In patent US9206188B2, “Substituted pyrrolo[2,3-b]pyridines as ITK and JAK inhibitors” (Arrien Pharmaceuticals LLC, priority 2013, dated 2015):
Where two headings read alike, the source gives them in different places.

How the values were obtained:
[1] = molecular target: ITK (Homo sapiens (Human), UniProt Q08881); assay: ITK kinase assay (radiometric filter binding, 10 μM ATP); type: biochemical
Procedure: (§1) All additions were done on ice, followed by the addition of ATP mix. Wells were uniformly mixed using an Eppendorff plate shaker and incubated at 30° C. for 20 min, and stopped by the addition of 5 μL of 3% phosphoric acid. Volume was increased to 100 μL by adding 0.8% phosphoric acid which was then transferred to PC filter mats (Millipore), pre-equilibrated with 70% ethanol and water. Plates were washed thrice with 100 μL 0.8% phosphoric acid and dried for an hour at 60° C. 100 μL scintillation fluid was added into each well and reading taken in Perkin Elmer TOPCOUNT beta counter.
(§2) The reactions were carried out at 10 μM ATP for ITK, JAK3 and other TEC and Janus family of kinase.

[2] = molecular target: JAK3 (Homo sapiens (Human), UniProt P52333); assay: JAK3 kinase assay (radiometric filter binding, 10 μM ATP); type: biochemical
Procedure: as §1, §2

[3] = 10-dose IC50 mode, 10 μM ATP, read-out: ITK kinase inhibition
[4] = read-out: biochemical IC50 against ITK
[5] = 10-dose IC50 mode, 10 μM ATP, read-out: JAK3 kinase inhibition
[6] = read-out: biochemical IC50 against JAK3

JAK3, sequence (P52333 whole entry): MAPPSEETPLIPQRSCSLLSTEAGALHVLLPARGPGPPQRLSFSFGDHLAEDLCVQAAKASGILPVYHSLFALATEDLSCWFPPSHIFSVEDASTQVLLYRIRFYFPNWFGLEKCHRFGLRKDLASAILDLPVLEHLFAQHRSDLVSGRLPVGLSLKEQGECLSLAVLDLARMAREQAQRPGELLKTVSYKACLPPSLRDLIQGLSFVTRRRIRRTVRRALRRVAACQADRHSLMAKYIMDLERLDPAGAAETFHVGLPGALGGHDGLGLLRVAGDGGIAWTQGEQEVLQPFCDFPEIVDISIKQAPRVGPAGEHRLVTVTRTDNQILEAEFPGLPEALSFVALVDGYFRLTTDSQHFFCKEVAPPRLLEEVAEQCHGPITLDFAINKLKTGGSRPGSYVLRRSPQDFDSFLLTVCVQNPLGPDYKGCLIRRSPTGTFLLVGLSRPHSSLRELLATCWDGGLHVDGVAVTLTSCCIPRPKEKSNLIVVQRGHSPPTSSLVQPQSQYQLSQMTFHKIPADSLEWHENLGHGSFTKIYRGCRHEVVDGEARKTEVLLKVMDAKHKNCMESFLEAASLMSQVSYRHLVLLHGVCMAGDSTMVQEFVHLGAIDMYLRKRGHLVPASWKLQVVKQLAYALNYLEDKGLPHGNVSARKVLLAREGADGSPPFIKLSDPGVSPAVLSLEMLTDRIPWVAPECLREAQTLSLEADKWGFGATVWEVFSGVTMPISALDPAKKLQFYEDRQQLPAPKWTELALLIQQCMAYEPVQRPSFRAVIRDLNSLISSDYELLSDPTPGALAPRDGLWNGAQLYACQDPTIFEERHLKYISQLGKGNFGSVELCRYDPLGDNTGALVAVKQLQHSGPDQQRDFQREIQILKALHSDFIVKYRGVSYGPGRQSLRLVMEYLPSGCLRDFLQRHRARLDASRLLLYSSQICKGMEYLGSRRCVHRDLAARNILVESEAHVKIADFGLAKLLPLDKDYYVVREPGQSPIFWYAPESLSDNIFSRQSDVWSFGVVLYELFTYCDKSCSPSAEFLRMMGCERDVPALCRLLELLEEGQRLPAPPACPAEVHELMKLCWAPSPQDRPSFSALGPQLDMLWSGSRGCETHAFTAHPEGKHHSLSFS
ITK, sequence (Q08881 whole entry): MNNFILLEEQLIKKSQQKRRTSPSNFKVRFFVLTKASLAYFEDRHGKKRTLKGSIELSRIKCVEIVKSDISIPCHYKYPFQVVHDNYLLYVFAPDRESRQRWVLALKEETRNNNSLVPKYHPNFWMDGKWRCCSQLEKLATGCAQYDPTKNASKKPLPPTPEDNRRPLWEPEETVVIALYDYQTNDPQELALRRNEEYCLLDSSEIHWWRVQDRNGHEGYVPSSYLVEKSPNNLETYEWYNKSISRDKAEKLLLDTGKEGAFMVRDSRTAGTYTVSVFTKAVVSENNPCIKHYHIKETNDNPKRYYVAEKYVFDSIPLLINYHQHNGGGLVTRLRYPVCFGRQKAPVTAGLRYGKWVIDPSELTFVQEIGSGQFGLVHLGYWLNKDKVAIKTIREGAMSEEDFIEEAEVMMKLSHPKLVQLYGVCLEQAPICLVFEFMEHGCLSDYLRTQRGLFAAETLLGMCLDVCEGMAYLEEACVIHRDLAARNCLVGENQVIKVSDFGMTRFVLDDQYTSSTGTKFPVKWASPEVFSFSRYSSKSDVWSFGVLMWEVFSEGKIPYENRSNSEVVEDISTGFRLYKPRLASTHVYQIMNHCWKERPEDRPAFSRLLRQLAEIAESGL

IC50 [1, 3] [nM] | IC50 [1, 4] [nM] | IC50 [2, 5] [nM] | IC50 [2, 6] [nM] | Compound
> 1000 | 100 to 1000 | < 100 | 100 to 1000 | C#CC1(C(=O)Nc2cccc(-c3cnc4[nH]cc(Cl)c4c3)c2)CC1 [Example 16, N-(3-(3-chloro-1H-pyrrolo[2,3-b]pyridin-5-yl)phenyl)-1-ethynylcyclopropanecarboxamide]
> 100 | – | > 100 | – | CCC#CC(=O)Nc1cccc(-c2cnc3[nH]cc(-c4cccc(S(=O)(=O)N(C)C(C)(C)C)c4)c3n2)c1 [Example 96, N-(3-(7-(3-(N-(tert-butyl)-N-methylsulfamoyl)phenyl)-5H-pyrrolo[2,3-b]pyrazin-2-yl)phenyl)pent-2-ynamide]
> 1000 | – | – | – | CN(C)/C=C/C(=O)Nc1cccc(-c2cnc3[nH]cc(Cl)c3c2)c1 [Example 44, (E)-N-(3-(3-chloro-1H-pyrrolo[2,3-b]pyridin-5-yl)phenyl)-3-(dimethylamino)acrylamide]
– | 100 to 1000 | – | 100 to 1000 | C=CC(=O)Nc1cccc(-c2cnc3[nH]cc(C)c3c2)c1 [Example 8, N-(3-(3-methyl-1H-pyrrolo[2,3-b]pyridin-5-yl)phenyl)acrylamide]
< 100 | – | < 100 | – | COc1cc(F)c(C)cc1-c1c[nH]c2ncc(-c3cc(F)cc(NC(=O)/C(C)=C/C(C)(C)C)c3C)cc12 [Example 173, (E)-N-(5-fluoro-3-(3-(4-fluoro-2-methoxy-5-methylphenyl)-1H-pyrrolo[2,3-b]pyridin-5-yl)-2-methylphenyl)-2,4,4-trimethylpent-2-enamide]
> 1000 | – | > 1000 | – | CC/C=C/C(=O)Nc1cc(-c2cnc3[nH]cc(Cl)c3c2)ccc1Cl [Example 47, (E)-N-(2-chloro-5-(3-chloro-1H-pyrrolo[2,3-b]pyridin-5-yl)phenyl)pent-2-enamide]
< 100 | – | < 100 | – | CC#CC(=O)Nc1cccc(-c2cnc3[nH]cc(C)c3c2)c1 [Example 23, N-(3-(3-methyl-1H-pyrrolo[2,3-b]pyridin-5-yl)phenyl)but-2-ynamide]
> 100 | – | > 100 | – | C=CC(=O)Nc1cc(-c2cnc3[nH]cc(C)c3c2)ccc1Cl [Example 15, N-(2-chloro-5-(3-methyl-1H-pyrrolo[2,3-b]pyridin-5-yl)phenyl)acrylamide]
> 100 | – | > 100 | – | C=CC(=O)Nc1cccc(-c2cnc3[nH]cc(-c4cccc(C(N)=O)c4)c3c2)c1 [Example 76, 3-(5-(3-acrylamidophenyl)-1H-pyrrolo[2,3-b]pyridin-3-yl)benzamide]
> 100 | – | > 100 | – | Cc1n[nH]c2ncc(-c3ccc(Cl)c(NC(=O)/C=C/N(C)C)c3)cc12 [Example 49, (E)-N-(2-chloro-5-(3-methyl-1H-pyrazolo[3,4-b]pyridin-5-yl)phenyl)-3-(dimethylamino)acrylamide]
– | 100 to 1000 | – | 100 to 1000 | C=CC(=O)Nc1cccc(-c2cnc3[nH]cc(-c4cc5ccccc5[nH]4)c3n2)c1 [Example 5, N-(3-(7-(1H-indol-2-yl)-5H-pyrrolo[2,3-b]pyrazin-2-yl)phenyl)acrylamide]
< 100 | – | < 100 | – | COc1c(F)cc(F)cc1-c1c[nH]c2ncc(-c3cc(F)cc(NC(=O)/C=C/CN(C)C)c3C)cc12 [Example 169, (E)-N-(3-(3-(3,5-difluoro-2-methoxyphenyl)-1H-pyrrolo[2,3-b]pyridin-5-yl)-5-fluoro-2-methylphenyl)-4-(dimethylamino)but-2-enamide]
< 100 | – | < 100 | – | C=CC(=O)Nc1cccc(-c2cnc3[nH]cc(-c4cccc(S(=O)(=O)N(C)C(C)(C)C)c4)c3n2)c1 [Example 33, N-(3-(7-(3-(N-(tert-butyl)-N-methylsulfamoyl)phenyl)-5H-pyrrolo[2,3-b]pyrazin-2-yl)phenyl)acrylamide]
> 1000 | – | < 100 | – | C#CC(=O)Nc1cc(-c2cnc3[nH]ccc3c2)ccc1F [Example 83, N-(2-fluoro-5-(1H-pyrrolo[2,3-b]pyridin-5-yl)phenyl)propiolamide]
< 100 | – | < 100 | – | C=CC(=O)Nc1cc(F)cc(-c2cnc3[nH]cc(-c4cc(F)cc(F)c4OC)c3c2)c1C [Example 168, N-(3-(3-(3,5-difluoro-2-methoxyphenyl)-1H-pyrrolo[2,3-b]pyridin-5-yl)-5-fluoro-2-methylphenyl)acrylamide]
> 100 | – | > 100 | – | CCC#CC(=O)Nc1cccc(-c2cnc3[nH]cc(-c4cc(F)cc(F)c4OC)c3c2)c1 [Example 37, N-(3-(3-(3,5-difluoro-2-methoxyphenyl)-1H-pyrrolo[2,3-b]pyridin-5-yl)phenyl)pent-2-ynamide]
< 100 | – | < 100 | – | COc1cc(F)c(C)cc1-c1c[nH]c2ncc(-c3cc(F)cc(NC(=O)/C=C/CN(C)C)c3C)cc12 [Example 172, (E)-4-(dimethylamino)-N-(5-fluoro-3-(3-(4-fluoro-2-methoxy-5-methylphenyl)-1H-pyrrolo[2,3-b]pyridin-5-yl)-2-methylphenyl)but-2-enamide]
> 1000 | – | > 100 | – | C=CC(=O)Nc1cccc(-c2cnc3[nH]cc(-c4cc5ccccc5[nH]4)c3c2)c1 [Example 74, N-(3-(3-(1H-indol-2-yl)-1H-pyrrolo[2,3-b]pyridin-5-yl)phenyl)acrylamide]
> 100 | – | > 100 | – | C#CC(=O)Nc1cccc(-c2cnc3[nH]cc(-c4cccc(S(=O)(=O)N(C)C(C)(C)C)c4)c3n2)c1 [Example 95, N-(3-(7-(3-(N-(tert-butyl)-N-methylsulfamoyl)phenyl)-5H-pyrrolo[2,3-b]pyrazin-2-yl)phenyl)propiolamide]
> 1000 | – | > 1000 | – | CC/C=C/C(=O)Nc1cc(-c2cnc3[nH]nc(C)c3c2)ccc1Cl [Example 52, (E)-N-(2-chloro-5-(3-methyl-1H-pyrazolo[3,4-b]pyridin-5-yl)phenyl)pent-2-enamide]
> 100 | – | > 100 | – | C=CC(=O)Nc1cccc(-c2cnc3[nH]cc(-c4cccc(S(C)(=O)=O)c4)c3c2)c1 [Example 35, N-(3-(3-(3-(methylsulfonyl)phenyl)-1H-pyrrolo[2,3-b]pyridin-5-yl)phenyl)acrylamide]
> 100 | – | > 100 | – | C=CC(=O)Nc1ccc(F)c(-c2cnc3[nH]cc(-c4cc(F)cc(F)c4OC)c3c2)c1 [Example 40, N-(3-(3-(3,5-difluoro-2-methoxyphenyl)-1H-pyrrolo[2,3-b]pyridin-5-yl)-4-fluorophenyl)acrylamide]
> 1000 | – | > 1000 | – | C=CC(=O)Nc1cccc(-c2cnc3[nH]nc(C)c3c2)c1 [Example 1, N-(3-(3-methyl-1H-pyrazolo[3,4-b]pyridin-5-yl)phenyl)acrylamide]
– | – | > 100 | – | C=CC(=O)Nc1cc(-c2cnc3[nH]cc(Cl)c3c2)cc(F)c1F [Example 64, N-(5-(3-chloro-1H-pyrrolo[2,3-b]pyridin-5-yl)-2,3-difluorophenyl)acrylamide]
– | – | < 100 | – | CC#CC(=O)Nc1cc(-c2cnc3[nH]cc(Cl)c3c2)ccc1F [Example 88, N-(5-(3-chloro-1H-pyrrolo[2,3-b]pyridin-5-yl)-2-fluorophenyl)but-2-ynamide]
– | – | > 100 | – | (E)-N-(2-chloro-5-(3-methyl-1H- pyrrolo[2,3-b]pyridin-5- yl)phenyl)pent-1-enamide [Example 14]
